Data from the supplement of paper PMC5373622, “Screening for AMPA receptor auxiliary subunit specific modulators” (PLoS ONE, 2017).
± gives the standard deviation of the averaged measurements.

What was measured:
GRIA2 [1] = experiment: glutamate-evoked VSD slope, % of maximal glutamate response; higher = potentiation
GRIA2 [2] = experiment: compound-evoked VSD slope (no glutamate), % of maximal glutamate slope; higher = agonist activity
Procedure: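 VSD concentration-response of known AMPAR ligands (fluorowillardiine, CX-546, cyclothiazide) on A2R-stg and A2R-C3 HEK293 cells, with compound added before EC50 glutamate. Per-well GluSlope and compound-window slope are given as % of the maximal-glutamate slope after vehicle subtraction.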

Structure (SMILES)	glutamate-evoked VSD slope (GRIA2 [1]; 1.95 µM, clone: A2R-C3) [%]	glutamate-evoked VSD slope (GRIA2 [1]; 1.95 µM, clone: A2R-stg) [%]	glutamate-evoked VSD slope (GRIA2 [1]; 3.91 µM, clone: A2R-C3) [%]	glutamate-evoked VSD slope (GRIA2 [1]; 3.91 µM, clone: A2R-stg) [%]	glutamate-evoked VSD slope (GRIA2 [1]; 7.81 µM, clone: A2R-C3) [%]	glutamate-evoked VSD slope (GRIA2 [1]; 7.81 µM, clone: A2R-stg) [%]	glutamate-evoked VSD slope (GRIA2 [1]; 15.6 µM, clone: A2R-C3) [%]	glutamate-evoked VSD slope (GRIA2 [1]; 15.6 µM, clone: A2R-stg) [%]	glutamate-evoked VSD slope (GRIA2 [1]; 31.2 µM, clone: A2R-C3) [%]	glutamate-evoked VSD slope (GRIA2 [1]; 31.2 µM, clone: A2R-stg) [%]	glutamate-evoked VSD slope (GRIA2 [1]; 62.5 µM, clone: A2R-C3) [%]	glutamate-evoked VSD slope (GRIA2 [1]; 62.5 µM, clone: A2R-stg) [%]	glutamate-evoked VSD slope (GRIA2 [1]; 0.000125 M, clone: A2R-C3) [%]	glutamate-evoked VSD slope (GRIA2 [1]; 0.000125 M, clone: A2R-stg) [%]	glutamate-evoked VSD slope (GRIA2 [1]; 0.00025 M, clone: A2R-stg) [%]	glutamate-evoked VSD slope (GRIA2 [1]; 0.0005 M, clone: A2R-C3) [%]	glutamate-evoked VSD slope (GRIA2 [1]; 0.0005 M, clone: A2R-stg) [%]	compound-evoked VSD slope (GRIA2 [2]; 1.95 µM, clone: A2R-C3) [%]	compound-evoked VSD slope (GRIA2 [2]; 1.95 µM, clone: A2R-stg) [%]	compound-evoked VSD slope (GRIA2 [2]; 3.91 µM, clone: A2R-C3) [%]	compound-evoked VSD slope (GRIA2 [2]; 3.91 µM, clone: A2R-stg) [%]	compound-evoked VSD slope (GRIA2 [2]; 7.81 µM, clone: A2R-C3) [%]	compound-evoked VSD slope (GRIA2 [2]; 7.81 µM, clone: A2R-stg) [%]	compound-evoked VSD slope (GRIA2 [2]; 15.6 µM, clone: A2R-C3) [%]	compound-evoked VSD slope (GRIA2 [2]; 15.6 µM, clone: A2R-stg) [%]	compound-evoked VSD slope (GRIA2 [2]; 31.2 µM, clone: A2R-C3) [%]	compound-evoked VSD slope (GRIA2 [2]; 31.2 µM, clone: A2R-stg) [%]	compound-evoked VSD slope (GRIA2 [2]; 62.5 µM, clone: A2R-C3) [%]	compound-evoked VSD slope (GRIA2 [2]; 62.5 µM, clone: A2R-stg) [%]	compound-evoked VSD slope (GRIA2 [2]; 0.000125 M, clone: A2R-C3) [%]	compound-evoked VSD slope (GRIA2 [2]; 0.000125 M, clone: A2R-stg) [%]	compound-evoked VSD slope (GRIA2 [2]; 0.00025 M, clone: A2R-C3) [%]	compound-evoked VSD slope (GRIA2 [2]; 0.00025 M, clone: A2R-stg) [%]	compound-evoked VSD slope (GRIA2 [2]; 0.0005 M, clone: A2R-C3) [%]	compound-evoked VSD slope (GRIA2 [2]; 0.0005 M, clone: A2R-stg) [%]	glutamate-evoked VSD slope (GRIA2 [1]; 0.001 M, clone: A2R-C3) [%]	glutamate-evoked VSD slope (GRIA2 [1]; 0.001 M, clone: A2R-stg) [%]	compound-evoked VSD slope (GRIA2 [2]; 0.001 M, clone: A2R-C3) [%]
NS(=O)(=O)c1cc2c(cc1Cl)NC(C1CC3C=CC1C3)NS2(=O)=O (configuration not stated) [cyclothiazide]	23 ± 3.3	30.6 ± 5.6	26.7 ± 2.5	37.5 ± 5.1	42.8 ± 3.3	52.6 ± 3.2	56.6 ± 5.3	60 ± 5.6	65.2 ± 3.7	62.7 ± 9.1	70.9 ± 3.4	68.8 ± 4	63.8 ± 21	68.4 ± 3.5	71.3 ± 3.3	69 ± 4.6	65.9 ± 8.1	16.2 ± 1.1	27.7 ± 0.73	18.4 ± 1.1	26.6 ± 1.6	15.7 ± 1.1	27.1 ± 1.4	18 ± 1.3	27.3 ± 0.81	18.6 ± 0.53	27.7 ± 1.1	18.6 ± 1.4	28.8 ± 0.79	19.2 ± 1.4	29 ± 0.62	20.3 ± 1.3	28.2 ± 1.1	20.7 ± 1.4	27.5 ± 1.8			
O=C(c1ccc2c(c1)OCCO2)N1CCCCC1 [CX-546]			12.5 ± 1.8		10.8 ± 3.4	20.7 ± 4.5	15.8 ± 6.4	24.6 ± 8		24.9 ± 3.2	23 ± 2	41.4 ± 4.9	25.6 ± 3.4		53.6 ± 3	40.3 ± 4.6				16.4 ± 1.7	26.8 ± 0.99	16.9 ± 0.81	27.4 ± 1	16.1 ± 4.3	26.7 ± 1.3	16.2 ± 3.6	26.7 ± 1.4	18.9 ± 2.4	28 ± 0.66	18.9 ± 0.99	29.5 ± 0.74			23.4 ± 0.91		47.6 ± 10	54.1 ± 3.9	29.1 ± 1.2
